# Measurements reported in patent publication US20200222474A1, “COMPOSITIONS AND METHODS FOR INCREASING PHYTOCHEMICAL BIOAVAILABLITY AND BIOACTIVITY” (North Carolina State University, priority 2017, published 2020).
# System: L. acidophilus NCFM
# Test: RNA-seq transcriptional analysis of L. acidophilus NCFM growing on plant glycosides
# Format: cell-based, Lactobacillus acidophilus
# [1] = gene LBA0282 (Hypothetical protein)
# [2] = gene LBA0327 (Replication protein)
# [3] = gene LBA0328 (Hypothetical protein)
# [4] = gene LBA0330 (Hypothetical protein)
# [5] = gene LBA0457 (Hypothetical protein)
# [6] = gene LBA0485 (Hypothetical protein)
# [7] = gene LBA0486 (Hypothetical protein)
# [8] = gene LBA0487 (Hypothetical protein.)
# [9] = gene LBA0492 (Hypothetical protein)
# [10] = gene LBA0541 (Cadmium-transporting ATPase)
# [11] = gene LBA0542 (Putative heavy-metal-transporting alpase)
# [12] = gene LBA0543 (Hypothetical protein)
# [13] = gene LBA0544 (Transcriptional regulator)
# [14] = gene LBA0555 (Myosin-crossreactive antigen)
# [15] = gene LBA0564 (HAD family hydrolase)
# [16] = gene LBA0574 (ABC multi drug exporter)
# [17] = gene LBA0575 (ABC multi drug exporter)
# [18] = gene LBA0604 (Immunity protein)
# [19] = gene LBA0605 (Putative hydrolase)
# [20] = gene LBA0608 (Hypothetical protein)
# [21] = gene LBA0631 (Hypothetical protein)
# [22] = gene LBA0649 (Myosin-crossreactive antigen)
# [23] = gene LBA0728 (Hypothetical protein LBA0728)
# [24] = gene LBA1025 (Aldo/keto reductase family oxidoreductase)
# [25] = gene LBA1026 (Aldo/keto reduetase family oxidoreductase)
# [26] = gene LBA1206 (Hypothetical protein)
# [27] = gene LBA1401 (Peroxidase (Npx))
# [28] = gene LBA1435 (Hypothetical protein)
# [29] = gene LBA1455 (Putative surface layer protein)
# [30] = gene LBA1469 (UDP-glucose 4-epimerase)
# [31] = gene LBA1656 (Hypothetical protein)
# [32] = gene LBA1675 (Hypothetical protein)
# [33] = gene LBA1676 (ATP-dependent helicase)
# [34] = gene LBA1683 (Putative magnesium-transporting atpase)
# [35] = gene LBA1704 (N-Acetylmuramic acid-6-phosphate etherase)
# [36] = gene LBA1740 (Hypothetical protein)
# [37] = gene LBA1752 (Hypothetical protein)
# [38] = gene LBA1769 (Hypothetical protein)
# [39] = gene LBA1793 (Hypothetical protein)
# [40] = gene LBA1869 (Beta-phosphoglueomutase)
# [41] = gene LBA1895 (Hypothetical protein)
# [42] = nTPM on plant glycoside relative to glucose, mid-exponential phase
smiles,measurement,setting,value
OCc1ccccc1O[C@@H]1O[C@H](CO)[C@@H](O)[C@H](O)[C@H]1O [Salicin],Log2 differential normalized TPM ratio compared to lactose,[1],0
same,Transcripts per million (rpm),[1],34.3 rpm
same,Log2 differential normalized TPM ratio compared to glucose,[2],0
same,Log2 differential normalized TPM ratio compared to lactose,[2],−0.3
same,Transcripts per million (rpm),[2],8.1 rpm
same,Log2 differential normalized TPM ratio compared to glucose,[3],−0.1
same,Log2 differential normalized TPM ratio compared to lactose,[3],0
same,Transcripts per million (rpm),[3],13.3 rpm
same,Log2 differential normalized TPM ratio compared to glucose,[4],0.4
same,Log2 differential normalized TPM ratio compared to lactose,[4],0
same,Transcripts per million (rpm),[4],27.3 rpm
same,Log2 differential normalized TPM ratio compared to glucose,[5],1.8
same,Log2 differential normalized TPM ratio compared to lactose,[5],0.8
same,Transcripts per million (rpm),[5],1746 rpm
same,Log2 differential normalized TPM ratio compared to glucose,[6],1.9
same,Log2 differential normalized TPM ratio compared to lactose,[6],−0.5
same,Transcripts per million (rpm),[6],770.3 rpm
same,Log2 differential normalized TPM ratio compared to glucose,[7],2.4
same,Log2 differential normalized TPM ratio compared to lactose,[7],−0.4
same,Transcripts per million (rpm),[7],1205 rpm
same,Log2 differential normalized TPM ratio compared to glucose,[8],1.5
same,Log2 differential normalized TPM ratio compared to lactose,[8],0.2
same,Transcripts per million (rpm),[8],96.1 rpm
same,Log2 differential normalized TPM ratio compared to glucose,[9],2
same,Log2 differential normalized TPM ratio compared to lactose,[9],−0.5
same,Transcripts per million (rpm),[9],32.8 rpm
same,Log2 differential normalized TPM ratio compared to glucose,[10],2
same,Log2 differential normalized TPM ratio compared to lactose,[10],−0.3
same,Transcripts per million (rpm),[10],143.6 rpm
same,Log2 differential normalized TPM ratio compared to glucose,[11],1.8
same,Log2 differential normalized TPM ratio compared to lactose,[11],−0.4
same,Transcripts per million (rpm),[11],311.6 rpm
same,Log2 differential normalized TPM ratio compared to glucose,[12],2
same,Log2 differential normalized TPM ratio compared to lactose,[12],−0.4
same,Transcripts per million (rpm),[12],266.3 rpm
same,Log2 differential normalized TPM ratio compared to glucose,[13],1.7
same,Log2 differential normalized TPM ratio compared to lactose,[13],−0.3
same,Transcripts per million (rpm),[13],342.8 rpm
same,Log2 differential normalized TPM ratio compared to glucose,[14],1.4
same,Log2 differential normalized TPM ratio compared to lactose,[14],−0.5
same,Transcripts per million (rpm),[14],118.8 rpm
same,Log2 differential normalized TPM ratio compared to glucose,[15],0.4
same,Log2 differential normalized TPM ratio compared to lactose,[15],−0.2
same,Transcripts per million (rpm),[15],1.4 rpm
same,Log2 differential normalized TPM ratio compared to glucose,[16],−0.7
same,Log2 differential normalized TPM ratio compared to lactose,[16],−1
same,Transcripts per million (rpm),[16],54.6 rpm
same,Log2 differential normalized TPM ratio compared to glucose,[17],−0.5
same,Log2 differential normalized TPM ratio compared to lactose,[17],−0.8
same,Transcripts per million (rpm),[17],55.6 rpm
same,Log2 differential normalized TPM ratio compared to glucose,[18],−0.1
same,Log2 differential normalized TPM ratio compared to lactose,[18],−0.6
same,Transcripts per million (rpm),[18],14.3 rpm
same,Log2 differential normalized TPM ratio compared to glucose,[19],1.2
same,Log2 differential normalized TPM ratio compared to lactose,[19],0.2
same,Transcripts per million (rpm),[19],6.3 rpm
same,Log2 differential normalized TPM ratio compared to glucose,[20],1.4
same,Log2 differential normalized TPM ratio compared to lactose,[20],0.3
same,Transcripts per million (rpm),[20],95.4 rpm
same,Log2 differential normalized TPM ratio compared to glucose,[21],2.9
same,Log2 differential normalized TPM ratio compared to lactose,[21],−0.2
same,Transcripts per million (rpm),[21],9342.6 rpm
same,Log2 differential normalized TPM ratio compared to glucose,[22],1.6
same,Log2 differential normalized TPM ratio compared to lactose,[22],0.8
same,Transcripts per million (rpm),[22],116.3 rpm
same,Log2 differential normalized TPM ratio compared to glucose,[23],4.1
same,Log2 differential normalized TPM ratio compared to lactose,[23],2.3
same,Transcripts per million (rpm),[23],43.8 rpm
same,Log2 differential normalized TPM ratio compared to lactose,gene LBA0802 (Hypothetical protein),−0.2
same,Log2 differential normalized TPM ratio compared to glucose,gene LBA0861 (Polyferredoxin),0.1
same,Log2 differential normalized TPM ratio compared to lactose,gene LBA0861 (Polyferredoxin),−0.5
same,Transcripts per million (rpm),gene LBA0861 (Polyferredoxin),196.3 rpm
same,Log2 differential normalized TPM ratio compared to glucose,gene LBA1023 (Oxidoreductase),−0.4
same,Log2 differential normalized TPM ratio compared to lactose,gene LBA1023 (Oxidoreductase),−0.7
same,Transcripts per million (rpm),gene LBA1023 (Oxidoreductase),132.8 rpm
same,Log2 differential normalized TPM ratio compared to glucose,[24],−0.4
same,Log2 differential normalized TPM ratio compared to lactose,[24],−0.5
same,Transcripts per million (rpm),[24],23.7 rpm
same,Log2 differential normalized TPM ratio compared to glucose,[25],−0.3
same,Log2 differential normalized TPM ratio compared to lactose,[25],−0.8
same,Transcripts per million (rpm),[25],26.1 rpm
same,Log2 differential normalized TPM ratio compared to glucose,gene LBA1027 (Oxidoreductase),2.2
same,Log2 differential normalized TPM ratio compared to lactose,gene LBA1027 (Oxidoreductase),0.6
same,Transcripts per million (rpm),gene LBA1027 (Oxidoreductase),2726.8 rpm
same,Log2 differential normalized TPM ratio compared to glucose,[26],1.5
same,Log2 differential normalized TPM ratio compared to lactose,[26],0.3
same,Transcripts per million (rpm),[26],391.2 rpm
same,Log2 differential normalized TPM ratio compared to glucose,[27],2.7
same,Log2 differential normalized TPM ratio compared to lactose,[27],0.6
same,Transcripts per million (rpm),[27],466.6 rpm
same,Log2 differential normalized TPM ratio compared to glucose,[28],3.6
same,Log2 differential normalized TPM ratio compared to lactose,[28],−0.2
same,Transcripts per million (rpm),[28],52.5 rpm
same,Log2 differential normalized TPM ratio compared to glucose,[29],0.1
same,Log2 differential normalized TPM ratio compared to lactose,[29],−1.6
same,Transcripts per million (rpm),[29],18.3 rpm
same,Log2 differential normalized TPM ratio compared to glucose,[30],1.4
same,Log2 differential normalized TPM ratio compared to lactose,[30],−3.6
same,Transcripts per million (rpm),[30],235.5 rpm
same,Log2 differential normalized TPM ratio compared to glucose,[31],0.9
same,Log2 differential normalized TPM ratio compared to lactose,[31],0.3
same,Transcripts per million (rpm),[31],38.2 rpm
same,Log2 differential normalized TPM ratio compared to glucose,[32],2
same,Log2 differential normalized TPM ratio compared to lactose,[32],0.5
same,Transcripts per million (rpm),[32],1669.1 rpm
same,Log2 differential normalized TPM ratio compared to glucose,[33],1.7
same,Log2 differential normalized TPM ratio compared to lactose,[33],0.5
same,Transcripts per million (rpm),[33],1070.6 rpm
same,Log2 differential normalized TPM ratio compared to glucose,[34],0.3
same,Log2 differential normalized TPM ratio compared to lactose,[34],0.5
same,Transcripts per million (rpm),[34],20.2 rpm
same,Log2 differential normalized TPM ratio compared to glucose,[35],0.7
same,Log2 differential normalized TPM ratio compared to lactose,[35],0.1
same,Transcripts per million (rpm),[35],11.6 rpm
same,Log2 differential normalized TPM ratio compared to glucose,[36],0.3
same,Log2 differential normalized TPM ratio compared to lactose,[36],−0.5
same,Transcripts per million (rpm),[36],23.1 rpm
same,Log2 differential normalized TPM ratio compared to glucose,[37],0.6
same,Log2 differential normalized TPM ratio compared to lactose,[37],−0.3
same,Transcripts per million (rpm),[37],13 rpm
same,Log2 differential normalized TPM ratio compared to glucose,[38],1.8
same,Log2 differential normalized TPM ratio compared to lactose,[38],−0.1
same,Transcripts per million (rpm),[38],5527.5 rpm
same,Log2 differential normalized TPM ratio compared to glucose,[39],1.2
same,Log2 differential normalized TPM ratio compared to lactose,[39],−1.7
same,Transcripts per million (rpm),[39],37.8 rpm
same,Log2 differential normalized TPM ratio compared to glucose,gene LBA1796 (ABC exporter),1
same,Log2 differential normalized TPM ratio compared to lactose,gene LBA1796 (ABC exporter),−1.6
same,Transcripts per million (rpm),gene LBA1796 (ABC exporter),18.3 rpm
same,Log2 differential normalized TPM ratio compared to glucose,[40],2.4
same,Log2 differential normalized TPM ratio compared to lactose,[40],−0.1
same,Transcripts per million (rpm),[40],43.1 rpm
same,Log2 differential normalized TPM ratio compared to glucose,[41],0.7
same,Log2 differential normalized TPM ratio compared to lactose,[41],0.5
same,Transcripts per million (rpm),[41],46.2 rpm
same,"Log2 Ratio vs Glc, LBA0225 Phospho-β-glucosidase (GH1)",[42],−0.1
same,"Log2 Ratio vs Glc, LBA0227 PTS EIIC",[42],0.9
same,"Log2 Ratio vs Glc, LBA0228 Transcriptional regulator",[42],0.1
same,"Log2 Ratio vs Glc, LBA0466 Phosphoenolpyruvate carboxykinase (ATP)",[42],1.3
same,"Log2 Ratio vs Glc, LBA0491 PTS EIIC",[42],1.5
same,"Log2 Ratio vs Glc, LBA0492 Hypothetical protein",[42],2
same,"Log2 Ratio vs Glc, LBA0555 Myosin-cross-reactive antigen/Fatty acid hydratase",[42],1.4
same,"Log2 Ratio vs Glc, LBA0606 PTS EIIBC",[42],2.5
same,"Log2 Ratio vs Glc, LBA0631 Hypothetical protein",[42],2.9
same,"Log2 Ratio vs Glc, LBA0724 Transcriptional regulator (antiterminator)",[42],5.3
same,"Log2 Ratio vs Glc, LBA0725 PTS EIICBA",[42],8.9
same,"Log2 Ratio vs Glc, LBA0726 Phospho-β-glucosidase (GH1)",[42],6.2
same,"Log2 Ratio vs Glc, LBA0728 Hypothetical protein",[42],4.1
same,"Log2 Ratio vs Glc, LBA0876 PTS EIIC",[42],2.4
same,"Log2 Ratio vs Glc, LBA0877 PTS EIIA",[42],1.3
same,"Log2 Ratio vs Glc, LBA1401 Peroxidase (Npx)",[42],2.7
same,"Log2 Ratio vs Glc, LBA1411 Fumarate reductase flavoprotein subunit",[42],1.4
same,"Log2 Ratio vs Glc, LBA1433 Dihydroxyacetone kinase",[42],2.7
same,"Log2 Ratio vs Glc, LBA1434 Dihydroxyacetone kinase",[42],3.3
same,"Log2 Ratio vs Glc, LBA1435 Hypothetical protein",[42],3.6
same,"Log2 Ratio vs Glc, LBA1436 Glycerol uptake facilitator protein",[42],3.8
same,"Log2 Ratio vs Glc, LBA1632 NAD-dependent aldehyde dehydrogenase",[42],2
same,"Log2 Ratio vs Glc, LBA1684 PTS EIIA",[42],2.6
same,"Log2 Ratio vs Glc, LBA1689 Maltose-6′-phosphate glucosidase (GH4)",[42],3.7
same,"Log2 Ratio vs Glc, LBA1701 Melibiose operon regulatory protein",[42],1
same,"Log2 Ratio vs Glc, LBA1709 Mucus binding protein precursor",[42],0.5
same,"Log2 Ratio vs Glc, LBA1797 Hypothetical protein",[42],1.3
same,"Log2 Ratio vs Glc, LBA1812 α-Glucosidase II (GH31)",[42],2.2
same,"Log2 Ratio vs Glc, LBA1869 β-Phosphoglucomutase",[42],2.4
same,"Log2 Ratio vs Glc, LBA1871 Neopullulanase (GH13)",[42],0.9
same,"Log2 Ratio vs Glc, LBA1873 Acetate kinase",[42],1.2
same,"Log2 Ratio vs Glc, LBA1974 Pyruvate oxidase",[42],1.8
